The nature of data set [1]: in vivo. The settings on record: rat, po, Acute Oral LD50, rats.
A short description of data set [2]: in vivo. The settings on record: mouse, po.
A short description of data set [3]: in vivo. The settings on record: guinea pig, po.
Data set [4] in a line: Acute oral toxicity, rats.
Data set [5] has as its system Plasmodium cynomolgi. The data set is described as follows: Radical curative (tissue schizonticidal) test, SEATO, P. cynomolgi, rhesus monkey. Type of data set: in vivo, Plasmodium cynomolgi (strain B) in Indian rhesus monkeys. As for the experimental part:
Radical Curative Test in Rhesus Monkeys, SEATO Medical Research Laboratory, Bangkok, John Brown/Richard Andre
This test is designed to evaluate the tissue schizonticidal (radical curative) activity of test compounds. Well-conditioned Indian rhesus monkeys of either sex weighing 2-4 Kg are utilized. Plasmodium cynomolgi (strain B) sporozoites are prepared by grinding heavily infected Anopheles dirus salivary glands in 1:1 monkey serum-saline vehicle.
Monkeys are infected by I.V. injection of 10^6 freshly isolated P. cynomolgi sporozoites on day 0. A rapidly rising parasitemia develops after a 7-9 day prepatent period, and administration of the test drug is initiated when the rising parasite count exceeds 5000 per mm^3 (typically day 10-12). Test drugs are administered orally (by nasogastric intubation) once daily for 7 consecutive days in aqueous solution or, if insoluble, in suspension in 0.3% methylcellulose solution. Chloroquine diphosphate (3.1 mg/kg base/kg orally per day) is always administered concurrently with the test drug for 7 days to eliminate blood schizonts. Thus any tissue schizonticidal activity of the test drug will always be apparent even if it lacks blood schizonticidal activity.
A vehicle control monkey and a positive drug control (primaquine) monkey are included in each group of inoculated monkeys.
The effect of the test drug is determined by counting blood parasites. Parasite counts are made daily through day 20, and every two days thereafter. Initially a clearance of blood parasites is observed due to the blood schizonticidal action of chloroquine. […] If there is no relapse within 20 days of the initial clearance of parasitemia, the monkey is splenectomized and its parasitemia followed for an additional 30 days. If there is no relapse within this period, the experiment is terminated and the monkey is considered "cured".
Primaquine diphosphate cures over 90% of monkeys in this test system when administered at a dose of 1.3 mg/kg of salt per day for 7 days ([…]) in combination with chloroquine.
The antimalarial activity data acquired by the two test procedures described above are listed in Tables 2 and 3 for the compounds of this invention. In Table 4, the most promising compound of the series, compound 1, is compared directly with primaquine together with some additional test data for compound 1 compared to primaquine. In all the work reported herein primaquine is used in the form of the diphosphate salt. The test data are expressed in the form of the number of cures at a given dose level. Extension of life (mean survival time) relative to the controls is noted in the Rane mouse test; if the mean survival time is extended seven or more days, the compound is considered to be active.
The Molar Primaquine Index is useful in the radical curative test (Table II) as a gauge of the efficacy of a candidate drug relative to primaquine.

Data set [6] in a line: Blood schizonticidal (suppressive) test, Rane mouse test, P. berghei. Type of data set: in vivo, Plasmodium berghei KBG 173 in ICR/HA Swiss mice. The settings on record: mouse, in vivo, sc. From the text:
Blood Schizonticidal Test (Mouse), University of Miami, Rane (Suppressive)
This system is based on comparisons of responses to test compounds by Plasmodium berghei KBG 173 malaria in mice as expressed in mean survival times and the mean survival times of untreated controls. Thus, compounds noted as active produce increases in the survival times of the treated animals that are significant when compared with the survival times of untreated controls. Since an established disease is less sensitive to treatment than a disease in the early stages of development, treatment is withheld until the parasitemia is relatively high in order to insure a more reliable assay of activity and the selection of appropriate compounds for intensive preclinical studies.
Utilizing young ICR/HA Swiss mice and a standard inoculum of Plasmodium berghei KBG 173, it is possible to produce a uniform disease fatal to 100% of untreated animals within 6 to 8 days with a mean survival time of 6.2 days. Test animals weigh from 18 to 22 grams but weight variations in any given experimental or control group are confined to 2-3 grams. All animals in any given test are approximately of the same age. Animals on test are housed in metal-topped plastic cages, given a standard laboratory diet and water ad libitum.
Test animals receive an intraperitoneal injection of 0.5 ml of 1:100 dilution of heparinized heart's blood with a minimum of 90% parasitized cells (4×10^7 cells), drawn from donor mice infected one week earlier with Plasmodium berghei. The donor stran is maintained by weekly passages in separate groups of mice inoculated with a 0.5 ml of 1:500 dilution of heparinized heart's blood.
Test compounds are administered after dissolution or suspension in peanut oil. A single dose is given subcutaneously 72 hours after the mice are infected with Plasmodium berghei. At this time a 10-15 percent parasitemia has developed; the disease is well established but has not produced sufficient debility to alter the response of the host to toxic effects of the drug on test. Since treatment is withheld for three days to permit the infection to become well established and death occurs in untreated controls within 6-8 days, it is believed that this system presents a candidate compound with the maximum challenge. In order to check factors such as changes in the infectivity of Plasmodium berghei or in the susceptibility of the host or to detect technical errors, a group of infected animals treated with pyrimethamine at dose levels producing definite increases in survival time is included as a positive control in every experiment.
In each experiment test compounds are administered in graded doses. […] However, if an active drug is toxic for the host, its toxicity may become a limiting factor; continued increases in dose levels also increase the toxic effects and may result in the diminution of survival times. Deaths prior to the sixth day, when untreated controls begin to die, are regarded as non-parasitic and become the basis for toxicity evaluations. Treated animals are kept under observation for 60 days. Survivors at the end of this period of time are considered as cured.
An increase of 100% in mean survival time is considered the minimum effective response for a candidate compound. In calculating mean survival time, toxic deaths and 60 day survivors are not included.
The antimalarial activity data acquired by the two test procedures described above are listed in Tables 2 and 3 for the compounds of this invention. In Table 4, the most promising compound of the series, compound 1, is compared directly with primaquine together with some additional test data for compound 1 compared to primaquine. In all the work reported herein primaquine is used in the form of the diphosphate salt. The test data are expressed in the form of the number of cures at a given dose level. […]

The subject of data set [7] is Plasmodium cynomolgi. The settings on record: cited from earlier work.
For data set [8], the system named is Plasmodium berghei. The settings on record: cited from earlier work.

Like-named read-outs stand apart in the source and are kept apart here.

As a reminder, the LD50 is the dose expected to kill half of the subjects tested.

`COc1cc(NC(C)CCCN)c2nccc(C)c2c1Oc1cccc(C(F)(F)F)c1.O=C(O)CCC(=O)O` (centres unmarked) [Compound 1, 8-(4-Amino-1-methylbutylamino)-6-methoxy-4-methyl-5-(3-trifluoromethylphenoxy)quinoline Succinate]: the LD50 was 577 mg/kg in data set [1] (female), 259 mg/kg in data set [1] (male), 236 mg/kg in data set [2] and 174 mg/kg in data set [3]. For the same compound, the “LD50 ratio Compound 1/Primaquine” value in data set [4] (rats, female) was determined as 2.76; in data set [4] (rats, male) it was 1.46. Moreover, the “% curative (radical curative)” value in data set [5] (0.316 mg/kg/day) turned out to be 100%. The “Radical curative activity relative to primaquine” value in data set [5] (in words) is “markedly superior to primaquine”. Besides, in data set [5] (primaquine CD100 dose / drug CD100 dose, in moles), the “Molar Primaquine Index CD 100” value is given as 4.8.
As for `COc1cc(NC(C)CCCN)c2ncccc2c1` (centres unmarked) [Primaquine Diphosphate, 8-((4-amino-1-methylbutyl)amino)-6-methoxy-quinoline, reference compound], the mortality in data set [6] (320 mg/kg × 1, s.c., five mice, Table III, read-out: Toxic (converted)) is 40%; in data set [6] (640 mg/kg salt, s.c., Table IV A-1, read-out: Toxic deaths (converted)), 100%. Also, the Radical curative activity entry in data set [7] (0.316 mg/kg, prior art comparison) is “inactive”; in data set [5] (0.316 mg/kg/day), “inactive”. Also, in data set [7] (1.0 mg/kg (× 7), Table I), the “Radical curative activity, cures” value is 1/2. The “% cures (radical curative)” value is given as 50% in data set [7] (1.0 mg/kg) and 100% in data set [7] (1.3 mg/kg). In data set [4] (rat, in vivo, po), this compound registered an LD50 of 224 mg/kg. For the same compound, the “Acute Oral LD50” value in data set [4] (rats, male) turned out to be 177 mg/kg. Also, in data set [5] (1.0 mg/kg salt, oral, × 7 days, Table IV B-1), the “Radical curative test, cures” value is given as 1/2. Moreover, the Monkeys cured result in data set [5] (1.3 mg/kg of salt per day for 7 days (1.0 mg/kg free base) with chloroquine) is recorded as “over 90%”. The “Δ MST” value in data set [8] (160 mg/kg, 5 mice, Table I) was 9 days. The Toxic deaths in data set [8] (640 mg/kg, 5 mice, Table I) is 5T. Moreover, the Suppressive activity entry in data set [8] (non-toxic dose levels, prior art comparison) is listed as “very weak activity”.

The record behind these values is patent publication US4431807A, “4-Methyl-5-(unsubstituted and substituted phenoxy)-6-methoxy-8-(aminoalkylamino)quinolines” (priority 1981, dated 1984).
